According to the supplement of paper PMC10307832:

Columns and labels:
Test in all cases: relative viability (nuclei count vs DMSO), 5 days (fraction); higher = more cells survive
17-AAG + Bortezomib = compound: C=CCNC1=C2C[C@@H](C)C[C@H](OC)[C@H](O)[C@@H](C)/C=C(\C)[C@H](OC(N)=O)[C@@H](OC)/C=C\C=C(/C)C(=O)NC(=CC1=O)C2=O [17-AAG] + CC(C)C[C@H](NC(=O)[C@H](Cc1ccccc1)NC(=O)c1cnccn1)B(O)O [Bortezomib] (partner 0.002 µM)
Summary of the method: (§1)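 For relative viability, nuclei counts in treated wells were divided by those in vehicle wells. Lung cancer cell lines had been pin-tool dosed in 1536-well plates the day after seeding and cultured for 5 days, then fixed and stained in one step (final 0.05% Triton X-100, 1% formaldehyde, 1 ug/ml Hoechst) and imaged at 4×. Doses were one drug alone or a fixed anchor-drug dose plus five library-drug doses (not always all listed) in √10 steps, and values are duplicate-plate medians.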

17-AAG + Dasatinib = compound: C=CCNC1=C2C[C@@H](C)C[C@H](OC)[C@H](O)[C@@H](C)/C=C(\C)[C@H](OC(N)=O)[C@@H](OC)/C=C\C=C(/C)C(=O)NC(=CC1=O)C2=O [17-AAG] + Cc1nc(Nc2ncc(C(=O)Nc3c(C)cccc3Cl)s2)cc(N2CCN(CCO)CC2)n1 [Dasatinib] (partner 0.075 µM)
Summary of the method: as §1

17-AAG + Navitoclax = compound: C=CCNC1=C2C[C@@H](C)C[C@H](OC)[C@H](O)[C@@H](C)/C=C(\C)[C@H](OC(N)=O)[C@@H](OC)/C=C\C=C(/C)C(=O)NC(=CC1=O)C2=O [17-AAG] + CC1(C)CCC(c2ccc(Cl)cc2)=C(CN2CCN(c3ccc(C(=O)NS(=O)(=O)c4ccc(N[C@H](CCN5CCOCC5)CSc5ccccc5)c(S(=O)(=O)C(F)(F)F)c4)cc3)CC2)C1 [Navitoclax] (partner 0.5 µM)
Summary of the method: as §1

17-AAG + Luminespib = compound: C=CCNC1=C2C[C@@H](C)C[C@H](OC)[C@H](O)[C@@H](C)/C=C(\C)[C@H](OC(N)=O)[C@@H](OC)/C=C\C=C(/C)C(=O)NC(=CC1=O)C2=O [17-AAG] + CCNC(=O)c1noc(-c2cc(C(C)C)c(O)cc2O)c1-c1ccc(CN2CCOCC2)cc1 [Luminespib] (partner 0.01 µM)
Summary of the method: as §1

Row | Cell Line | relative viability (17-AAG + Bortezomib; first compound 0.00128 µM) | relative viability (17-AAG + Bortezomib; first compound 0.004048 µM) | relative viability (17-AAG + Bortezomib; first compound 0.0128 µM) | relative viability (17-AAG + Bortezomib; first compound 0.04048 µM) | relative viability (17-AAG + Bortezomib; first compound 0.128 µM) | relative viability (17-AAG + Dasatinib; first compound 0.00128 µM) | relative viability (17-AAG + Dasatinib; first compound 0.004048 µM) | relative viability (17-AAG + Dasatinib; first compound 0.0128 µM) | relative viability (17-AAG + Dasatinib; first compound 0.04048 µM) | relative viability (17-AAG + Dasatinib; first compound 0.128 µM) | relative viability (17-AAG + Navitoclax; first compound 0.00128 µM) | relative viability (17-AAG + Navitoclax; first compound 0.004048 µM) | relative viability (17-AAG + Navitoclax; first compound 0.0128 µM) | relative viability (17-AAG + Navitoclax; first compound 0.04048 µM) | relative viability (17-AAG + Navitoclax; first compound 0.128 µM) | relative viability (17-AAG + Luminespib; first compound 0.00128 µM) | relative viability (17-AAG + Luminespib; first compound 0.004048 µM) | relative viability (17-AAG + Luminespib; first compound 0.0128 µM) | relative viability (17-AAG + Luminespib; first compound 0.04048 µM) | relative viability (17-AAG + Luminespib; first compound 0.128 µM)
1 | NCI-H2228 | 0.88 | 0.304 | 0.137 | 0.167 | 0.135 | 0.46 | 0.119 | 0.0679 | 0.089 | 0.0837 | 0.893 | 0.486 | 0.146 | 0.168 | 0.112 | 0.124 | 0.102 | 0.11 | 0.157 | 0.107
2 | NCI-H2347 |  | 0.995 | 0.871 | 0.447 | 0.371 | 0.308 | 0.248 | 0.216 | 0.176 | 0.118 | 0.908 | 0.737 | 0.74 | 0.441 | 0.245 | 0.62 | 0.278 | 0.274 | 0.299 | 0.374
3 | NCI-H2405 | 1.04 | 1.03 | 1 | 0.675 | 0.217 | 0.195 | 0.173 | 0.167 | 0.128 | 0.149 | 0.98 | 0.71 | 0.231 | 0.271 | 0.165 | 0.542 | 0.335 | 0.256 | 0.239 | 0.184
4 | NCI-H3122 | 0.926 | 0.954 | 0.506 | 0.488 | 0.177 | 0.854 | 0.754 | 0.0689 | 0.0681 | 0.0701 | 1.02 | 1.02 | 0.949 | 0.194 | 0.159 | 0.099 | 0.059 | 0.0637 | 0.0599 | 0.096
5 | PC-3 [JPC-3] | 0.824 | 0.848 | 0.814 |  | 0.707 | 1.02 | 0.966 | 1 |  | 0.815 | 0.794 | 0.82 | 0.835 |  | 0.793 | 0.766 | 0.723 | 0.71 |  | 0.538
6 | PC-14 | 0.915 | 0.822 | 0.808 | 0.12 | 0.101 | 0.179 | 0.0725 | 0.0375 | 0.0586 | 0.0476 | 1.04 | 1.02 | 1.02 | 0.118 | 0.0935 | 0.146 | 0.111 | 0.143 | 0.162 | 0.128
7 | RERF-LC-KJ | 1.17 | 1.17 | 0.888 | 0.288 | 0.303 | 0.742 | 0.833 | 0.276 | 0.266 | 0.248 | 1.09 | 0.747 | 0.712 | 0.254 | 0.234 | 1.06 | 0.595 | 0.398 | 0.357 | 0.325
8 | SK-LU-1 | 0.976 | 0.903 | 0.311 | 0.238 | 0.197 | 0.154 | 0.0796 | 0.0621 | 0.0687 | 0.0526 | 0.818 | 0.164 | 0.135 | 0.152 | 0.136 | 0.215 | 0.174 | 0.176 | 0.177 | 0.15
9 | SW 1573 | 1.23 | 1.02 | 0.687 | 0.225 | 0.117 | 0.699 | 0.461 | 0.135 | 0.136 | 0.0753 | 0.704 | 0.955 | 0.74 | 0.142 | 0.0734 | 0.285 | 0.168 | 0.146 | 0.12 | 0.0673
10 | UMC-11 | 0.667 | 0.616 | 0.629 | 0.227 | 0.12 | 0.464 | 0.455 | 0.376 | 0.232 | 0.162 | 0.363 | 0.37 | 0.304 | 0.17 | 0.138 | 0.973 | 0.94 | 0.552 | 0.254 | 0.196
